Experiments:
NCI-H226 tumor cells = assay: In vivo efficacy in a subcutaneous human lung cancer xenograft model (NCI-H226 mesothelioma); set-up: species or system Female BALB/c Nude Mice; details: 100 mg/kg, p.o., BID × 21 days
Experimental: The NCI-H226 tumor cells were maintained in vitro with RPMI-1640 medium supplemented with 10% fetal bovine serum at 37° C. in an atmosphere of 5% CO2 in air. The cells in exponential growth phase were harvested and the cell numbers were quantitated by hemocytometer and cell viability was quantified by Trypan Blue counting before tumor inoculation. Balb/c nude mouse were inoculated with subcutaneously in the right front flank regions with 1×10^7 of NCI-H226 tumor cells in 0.1 mL of PBS mixed with 0.1 ml of Matrigel (1:1) for tumor development. All animals were randomized based on the tumor sizes as well as body weights and randomly allocated to the different study groups (8 mice per group). The randomization started when the mean tumor size at the right rear flank region had reached approximately 172 mm^3. The date of randomization was denoted as Day 0.
Cpd. No. 084 was formulated in Vehicle 1 (PEG400 (40%)+PG (30%)+WFI (30%)) as a 10 mg/ml solution, and dosed orally, twice daily, using 10 μl/g (final dose is 100 mg/kg) for 21 days. Cpd. No. 001 was formulated in Vehicle 2 (PEG400 (65%)+PG (20%)+WFI (15%)) as a 10 mg/ml solution, and dosed orally, twice daily, using 10 μl/g (final dose is 100 mg/kg) for 21 days. After tumor cell inoculation, the animals were checked daily for morbidity and mortality. At the time of routine monitoring, the animals were checked for any effects of tumor growth and treatments on behavior such as mobility, food and water consumption, body weight gain/loss (body weight was measured at least two times per week), and any other abnormalities. Mortality and observed clinical signs were recorded for individual animals. Tumor volumes were measured at least two times weekly in two dimensions using a caliper, and the volume was expressed in mm^3 using the formula: V=(L×W×W)/2, where V is tumor volume, L is tumor length (the longest tumor dimension) and W is tumor width (the longest tumor dimension perpendicular to L).
Tumor growth inhibition (TGI) was used as an indicator of antitumor activities, and was calculated from the relative tumor volumes of the control and treatment groups due to the variance of tumor volumes among groups at Day 0. TGI (%)=(1-T/C)×100%; T/C=MTVt/MTVc, MTVt: mean tumor volume in the treatment groups at a specific measurement day, MTVc: mean tumor volume in the control group at a specific measurement day. Moreover, the difference of TGIs between control and treatment groups was analyzed at a measurement day when all or most of the mice in the control groups were alive. In addition, body weight changes over time in each group were used as an index to evaluate the tolerability of test drugs, and were calculated from the average percentage of body weight changes of each individual mouse relative to their initial body weight at randomization using the following formula: group BW %=mean of ((BWt−BW0)/BW0×100%), BWt: body weight at Day t, BW0: body weight at Day 0.
To compare relative tumor volumes of different groups at a pre-specified day, we first used Bartlett's test to check the assumption of homogeneity of variance across all groups. When the p-value of Bartlett's test is >0.05, we run one-way ANOVA to test overall equality of means across all groups. If the p-value of the one-way ANOVA is <0.05, we further perform post hoc testing by running Tukey's HSD (honest significant difference) tests for all pairwise comparisons, and Dunnett's tests for comparing each treatment group with the vehicle group. When the p-value of Bartlett's test is <0.05, we run Kruskal-Wallis test to test overall equality of medians among all groups. If the p-value of the Kruskal-Wallis test is <0.05, we further perform post hoc testing by running Conover's non-parametric test for all pairwise comparisons or for comparing each treatment group with the vehicle group, both with single-step p-value adjustment. All tests were two-sided unless otherwise specified, and p-values<0.05 were regarded as statistically significant. […]

[1] = tested on: YAP/TAZ-TEAD transcription; assay: Reporter gene assay for measuring the inhibition of YAP/TAZ-TEAD transcription (TEAD-responsive element luciferase reporter in Hek293T cells); format: cell-based; details: Homo sapiens, HEK-293T, 24 h, Hek293T cells transiently transfected with TEAD-responsive element luciferase reporter; 24 hours incubation
Outline: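 Hek293T cells transiently transfected with a TEAD-responsive element luciferase reporter, plated onto pre-diluted compounds and incubated 24 h at 37 °C/5% CO2. Luminescence read after SteadyLite addition; % inhibition from RLU relative to vehicle (0%) and a positive control inhibitor (100%), giving IC50.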

NCI-1H226 = assay: Mesothelioma cell line proliferation assay, H226 (ATPlite); format: cell-based; details: Homo sapiens, NCI-H226, 144 h, 6 days with compound
Experimental: (§1) Mesothelioma cell lines, NCI-1H226 and NCI-1H2052 (all sourced from the ATCC cell culture collection) are plated in 96-well plates (Corning® 96 Well White Polystyrene Microplate clear flat bottom, white polystyrene (TC-Treated)), at 1500 cells/well in full medium (RPMI 1640 ATCC modification with L-glutamine, HEPES, Phenol Red, Sodium Pyruvate, High glucose, Low sodium bicarbonate and 10% fetal bovine serum). Cells are incubated overnight at 37° C. in an incubator with 5% C02. Then compounds, dissolved in DMSO, are added in dose-response. Cells are incubated with compound dilutions for another 6 days at 37° C. in an incubator with 5% C02. Cell viability is quantitated using the ATPlite kit (Perkin-Elmer) and the luminescence is read-out using an Envision instrument (Perkin-Elmer). The amount of relative light units produced using the ATPlite kit is used to calculated percent of inhibition.
(§2) The activities of some example compounds are depicted in the table below. The activity ranges A, B and C refer to EC50 values in the mesothelioma cell line proliferation assay as described as follows: “A”: EC50<1 μM; “B”: 1 μM s EC50≤10 μM and “C”: EC50≥10 μM; NT: not tested.

NCI-1H2052 = assay: Mesothelioma cell line proliferation assay, H2052 (ATPlite); format: cell-based; details: Homo sapiens, NCI-H2052, 144 h, 6 days with compound, read-out: H2025 (EC50)
Experimental: as §1, §2

[2] = day 20, against the compound's own vehicle group

| SMILES | anti-tumor activity in the xenograft mesothelioma model (NCI-H226 tumor cells) | Mean Tumor Volume (mm^3) on day 20 (NCI-H226 tumor cells; day 20, 8 mice per group) | T/C (%) (NCI-H226 tumor cells; [2]) | TGI (%) (NCI-H226 tumor cells; [2]) | IC50 [1] [µM] | EC50 (NCI-1H226) [µM] | EC50 (NCI-1H2052) [µM] |
| --- | --- | --- | --- | --- | --- | --- | --- |
| C=CC(=O)NCC1Cc2ccccc2N(c2ccc(C(F)(F)F)cc2)C1 (stereo not drawn) [compound 084, N-((1-(4-(trifluoromethyl)phenyl)-1,2,3,4-tetrahydroquinolin-3-yl)methyl)acrylamide] | highly statistically significant and strong anti-tumor activity | 165.82 ± 15.42 (8) mm^3 | 38.95 | 61.05 | < 1 | < 1 |  |
| C=CC(=O)NC1Cc2ccncc2N(c2ccc(C(F)(F)F)cc2)C1 (stereo not drawn) [compound 083, N-(1-(4-(trifluoromethyl)phenyl)-1,2,3,4-tetrahydro-1,7-naphthyridin-3-yl)acrylamide] |  |  |  |  | < 1 | < 1 | < 1 |
| C=CC(=O)NC1Cc2c(NCCOC)cccc2N(c2ccc(C(F)(F)F)cc2)C1 (stereo not drawn) [compound 077, N-(5-((2-methoxyethyl)amino)-1-(4-(trifluoromethyl)phenyl)-1,2,3,4-tetrahydroquinolin-3-yl)acrylamide] |  |  |  |  | < 1 | < 1 | < 1 |
| C=CC(=O)NC(C)C1Cc2ccccc2N(c2ccc(C(F)(F)F)cc2)C1 (stereo not drawn) [Cpd. No. 192, N-(1-(1-(4-(trifluoromethyl)phenyl)-1,2,3,4-tetrahydroquinolin-3-yl)ethyl)acrylamide] |  |  |  |  | < 1 | < 1 | < 1 |

— US20240025856A1, “1,2,3,4-TETRAHYDROQUINOLINE DERIVATIVES AS INHIBITORS OF THE YAP/TAZ-TEAD ACTIVATION FOR TREATING CANCER” (KATHOLIEKE UNIVERSITEIT LEUVEN, priority 2020, published 2024)
